Source: ChEMBL document CHEMBL4387717, “Structure guided drug design to develop kallikrein 5 inhibitors to treat Netherton syndrome” (Bioorg Med Chem Lett, 2019)
≈ marks a conversion by molar mass, not a printed value.

Experiments:
Kallikrein-14 = target: T1, Kallikrein-14 (Homo sapiens, UniProt Q9P0G3); assay: Inhibition of recombinant C-terminal 10His-tagged human KLK14 (Gln19 to Met248 residues) expressed in mouse NS0 cells using BOC-VPR-AMC as substrate after 40 mins by fluorescence intensity assay
T1 sequence (Q9P0G3 whole entry): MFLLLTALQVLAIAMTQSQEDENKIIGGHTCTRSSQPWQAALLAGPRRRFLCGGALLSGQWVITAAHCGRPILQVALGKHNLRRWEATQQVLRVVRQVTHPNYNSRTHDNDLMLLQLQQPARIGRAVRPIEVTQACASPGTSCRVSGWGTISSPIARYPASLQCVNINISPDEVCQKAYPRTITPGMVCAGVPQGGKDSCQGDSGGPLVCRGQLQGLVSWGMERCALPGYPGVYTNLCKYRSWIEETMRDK

Kallikrein-1 = Kallikrein-1 (Homo sapiens, UniProt P06870); assay: Inhibition of recombinant bovine enterokinase activated N-terminal His-tagged recombinant human KLK1 (19 to 262 residues) expressed in baculovirus infected Sf9 insect cells using 3',6'-bis(prolylphenylalanylarginylamino)3H-spiro(2-benzofuran-1,9'-xanthen)-3-one;TFA as substrate measured at 30 secs interval for 5 mins by fluorescence intensity assay
Plasma kallikrein = Plasma kallikrein (Homo sapiens, UniProt P03952); assay: Inhibition of recombinant C-terminal 6-His tagged human KLKB1 (Gly20 to Ala638 residues) expressed in mouse NS0 cells using P-F-R-AMC as substrate after 40 mins by fluorescence intensity assay
Kallikrein-7 = Kallikrein-7 (Homo sapiens, UniProt P49862); assay: Inhibition of recombinant C-terminal 10His-tagged human KLK7 (Glu23 to His252 residues) expressed in mouse NS0 cells using 5-FAM-E-A-L-Y-L-V-S-G-C as substrate after 40 mins by fluorescence intensity assay
Coagulation factor X = Coagulation factor X (Homo sapiens, UniProt P00742); assay: Inhibition of recombinant C-terminal 10His-tagged human coagulation factor 10a (Leu24 to Lys488 residues) expressed in baculovirus infected Sf9 insect cells using Mca-RPKPVE-Nval-WRK(Dnp)-NH2 as substrate after 40 mins by fluorescence intensity assay
[1] = target: T2, Suppressor of tumorigenicity 14 protein (Homo sapiens, UniProt Q9Y5Y6); assay: Inhibition of recombinant human N-terminal met-His6-tagged matriptase catalytic domain (Gly596 to Val855 residues) expressed in Escherichia coli using Boc-QAR-AMC as substrate after 40 mins by fluorescence intensity assay
T2 sequence (Q9Y5Y6 whole entry): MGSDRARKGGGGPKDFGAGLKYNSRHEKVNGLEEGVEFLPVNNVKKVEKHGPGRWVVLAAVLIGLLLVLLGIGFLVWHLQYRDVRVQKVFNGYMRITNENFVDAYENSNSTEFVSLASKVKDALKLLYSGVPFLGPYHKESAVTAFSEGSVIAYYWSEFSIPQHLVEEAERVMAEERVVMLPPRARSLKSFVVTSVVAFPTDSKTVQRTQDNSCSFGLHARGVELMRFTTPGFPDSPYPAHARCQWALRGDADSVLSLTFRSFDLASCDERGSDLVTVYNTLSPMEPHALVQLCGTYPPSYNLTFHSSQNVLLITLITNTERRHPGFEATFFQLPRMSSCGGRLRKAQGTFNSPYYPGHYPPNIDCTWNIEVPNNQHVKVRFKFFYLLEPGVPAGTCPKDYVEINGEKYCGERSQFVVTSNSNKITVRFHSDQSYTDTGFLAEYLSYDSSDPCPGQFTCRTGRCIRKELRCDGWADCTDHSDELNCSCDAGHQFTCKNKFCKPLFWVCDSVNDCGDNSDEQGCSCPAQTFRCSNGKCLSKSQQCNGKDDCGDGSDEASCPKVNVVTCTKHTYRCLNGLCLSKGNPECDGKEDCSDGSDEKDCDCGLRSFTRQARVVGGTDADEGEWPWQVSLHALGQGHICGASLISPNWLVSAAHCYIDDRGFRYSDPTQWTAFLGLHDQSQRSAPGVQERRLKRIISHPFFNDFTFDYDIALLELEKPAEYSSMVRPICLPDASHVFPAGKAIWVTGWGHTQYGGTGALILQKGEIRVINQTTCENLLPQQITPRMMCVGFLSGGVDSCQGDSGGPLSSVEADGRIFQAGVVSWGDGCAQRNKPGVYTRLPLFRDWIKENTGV

Prothrombin = Prothrombin (Homo sapiens, UniProt P00734); assay: Inhibition of recombinant C-terminal 10His-tagged human thrombin (Met1 to Glu622 residues) expressed in mouse NS0 cells using BOC-VPR-AMC as substrate after 40 mins by fluorescence intensity assay
[2] = target: Urokinase-type plasminogen activator (Homo sapiens, UniProt P00749); assay: Inhibition of recombinant C-terminal 10His-tagged human urokinase (Met1 to Leu431 residues) expressed in mouse NS0 cells using Z-GGR-AMC as substrate after 40 mins by fluorescence intensity assay
Homo sapiens [3] = species: Homo sapiens; assay: (§1) Selectivity index, ratio of compound effect for inhibition of recombinant C-terminal 10-His tagged human KLK7 (Glu23 to His252 residues) expressed in mouse NS0 cells to compound effect for inhibition of recombinant 6His-Q-FLAG tagged human KLK5 expressed in baculovirus infected insect Sf9 cells
Homo sapiens [4] = species: Homo sapiens; assay: as §1, with “coagulation factor 10a (Leu24” for “KLK7 (Glu23”, “Lys488” for “His252”, “baculovirus infected insect Sf9” for “mouse NS0”
Homo sapiens [5] = species: Homo sapiens; assay: Selectivity index, ratio of compound effect for inhibition of human neutrophil elastase to compound effect for inhibition of recombinant 6His-Q-FLAG tagged human KLK5 expressed in baculovirus infected insect Sf9 cells
Homo sapiens [6] = species: Homo sapiens; assay: Selectivity index, ratio of compound effect for inhibition of recombinant C-terminal 10-His tagged human thrombin (Met1 to Glu622 residues) expressed in mouse NS0 cells to compound effect for inhibition of recombinant 6His-Q-FLAG tagged human KLK5 expressed in baculovirus infected insect Sf9 cells
Homo sapiens [7] = species: Homo sapiens; assay: Selectivity index, ratio of compound effect for inhibition of recombinant C-terminal 10-His tagged human KLK8 (Gln29 to Gly260 residues) expressed in mouse NS0 cells to compound effect for inhibition of recombinant 6His-Q-FLAG tagged human KLK5 expressed in baculovirus infected insect Sf9 cells
[8] = Solubility of the compound in water at 24 hrs; format: physicochemical
[9] = Solubility of the compound in pH 4 Britton-Robinson buffer at 24 hrs; format: physicochemical; settings: Britton-Robinson buffer, pH 4
[10] = Solubility of the compound in pH 8 Britton-Robinson buffer at 24 hrs; format: physicochemical
[11] = Half life in pH 4 to 8 buffer at 0.05 mg/ml over 24 hrs; format: physicochemical
[12] = Half life in pH 8 buffer at 0.05 mg/ml under H2O2-induced oxidative condition over 24 hrs; format: physicochemical; settings: buffer with H2O2, pH 8
[13] = Absorption property in methanol assessed as maximum absorption wavelength by UV-spectra analysis; format: physicochemical
[14] = Absorption property in methanol assessed as molar extinction co-efficient by UV-spectra analysis; format: physicochemical

IC50 (Kallikrein-14): 3.98 µM
IC50 (Kallikrein-1): 63.1 µM
IC50 (Plasma kallikrein): 6.31 µM
IC50 (Kallikrein-7): > 100 µM
IC50 (Coagulation factor X): > 100 µM
IC50 [1]: 25.1 µM
IC50 (Prothrombin): 63.1 µM
IC50 [2]: > 100 µM
solubility at 24 h [8]: 1000 µg/mL (≈ 2510 µM)
solubility at 24 h [9]: 1000 µg/mL (≈ 2510 µM)
solubility at 24 h [10]: 180 µg/mL (≈ 452 µM)
half-life at 0.05 mg/ml [11]: > 1000 h
half-life at 0.05 mg/ml [12]: 10.1 h
Activity [13]: > 290 nm
Activity [14]: > 1000 a.u.L/mol.cm
Structure (SMILES): N=C(N)c1ccc(NCc2nc(-c3ccccc3)c[nH]2)cc1OCc1cccnc1
Selectivity Index (Homo sapiens [3]): > 100
Selectivity Index (Homo sapiens [4]): > 100
Selectivity Index (Homo sapiens [5]): > 100
Selectivity Index (Homo sapiens [6]): > 100
Selectivity Index (Homo sapiens [7]): 10
